The values that follow come from PubChem BioAssay (NCI).

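Step 1: Grow cells in 96-well plates. Step 2: Expose to compound for 48 hours at 5 concentrations. Step 3: Interpolate endpoints linearly; if unreached, use highest concentration. TGI: total growth inhibition.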 Bounds are passed on as bounds.

Test systems include SR leukemia; EKVX NSCLC; IGROV1 ovarian; RXF 393 renal; CCRF-CEM leukemia; 786-0 renal; M14 melanoma; HL-60(TB) leukemia; T-47D breast; BT-549 breast; MCF7 breast; HCC-2998 colon; PC-3 prostate; MDA-MB-435; TK-10 renal; HS 578T breast; MDA-MB-231 breast; SK-MEL-5 melanoma; DU-145 prostate.
Experiment in all cases: inhibition of tumour cell growth, NCI panel, 48 h

`O=C1Nc2ccccc2C1(O)Cc1ccccn1` (stereo not given): the TGI with SR leukemia, in the test with EKVX NSCLC, in the test with IGROV1 ovarian, in the test on RXF 393 renal, with CCRF-CEM leukemia and in the test on 786-0 renal was more than 100 µM throughout. Further, the TGI with M14 melanoma, in the test on HL-60(TB) leukemia, in the test with T-47D breast, with BT-549 breast, in the test with MCF7 breast and in the test on HCC-2998 colon was more than 100 µM throughout. The TGI with PC-3 prostate, in the test on MDA-MB-435, in the test with TK-10 renal, with HS 578T breast, with MDA-MB-231 breast and in the test on SK-MEL-5 melanoma was more than 100 µM in each case. Also, the TGI with DU-145 prostate was more than 100 µM.

For `O=C(O)C(C1NCCS1)N1C(=O)c2ccccc2C1=O` (stereo not given), the TGI with SR leukemia, in the test with EKVX NSCLC, in the test with IGROV1 ovarian, in the test with RXF 393 renal, in the test on CCRF-CEM leukemia and in the test with 786-0 renal was more than 100 µM throughout. Further, the TGI with M14 melanoma, with HL-60(TB) leukemia, in the test on T-47D breast, with BT-549 breast, in the test with MCF7 breast and in the test with PC-3 prostate was more than 100 µM each time. The TGI with MDA-MB-435, in the test on TK-10 renal, in the test with HS 578T breast, with MDA-MB-231 breast, with SK-MEL-5 melanoma and in the test on DU-145 prostate was more than 100 µM throughout.

Take `NNC(=O)c1cc(Cl)ccc1NC(=O)C12CC3CC(CC(C3)C1)C2`: the TGI in the test with SR leukemia was 88.3 µM; with IGROV1 ovarian, more than 100 µM; in the test with RXF 393 renal it was more than 100 µM; in the test on 786-0 renal, 79.9 µM; with M14 melanoma, 31.8 µM; with HL-60(TB) leukemia it was 94.2 µM. Moreover, the TGI is more than 100 µM in the test on T-47D breast; more than 100 µM with BT-549 breast; more than 100 µM in the test on MCF7 breast; 65 µM in the test with HCC-2998 colon; more than 100 µM in the test on PC-3 prostate; more than 100 µM in the test on MDA-MB-435. Besides, the TGI was more than 100 µM in the test on TK-10 renal; more than 100 µM with HS 578T breast; more than 100 µM with MDA-MB-231 breast; 76.5 µM in the test with SK-MEL-5 melanoma; more than 100 µM with DU-145 prostate.

As to `CC(C)(C(=O)N(C(=O)N1CCN(c2ccccc2)CC1)S(=O)(=O)c1ccccc1)c1ccc(Cl)cc1`, the TGI in the test with SR leukemia is more than 100 µM; in the test with EKVX NSCLC, 63.1 µM; in the test on RXF 393 renal, more than 100 µM; with CCRF-CEM leukemia, more than 100 µM; in the test on 786-0 renal it was more than 100 µM; with M14 melanoma, more than 100 µM. Besides, the TGI was more than 100 µM with HL-60(TB) leukemia; more than 100 µM with T-47D breast; more than 100 µM in the test on BT-549 breast; more than 100 µM with MCF7 breast; more than 100 µM with HCC-2998 colon; 70.3 µM in the test with PC-3 prostate. The TGI in the test with MDA-MB-435, in the test on TK-10 renal, in the test with HS 578T breast, with MDA-MB-231 breast, in the test with SK-MEL-5 melanoma and in the test on DU-145 prostate was more than 100 µM each time.

Consider `C=C1C(=O)OC2/C=C(CO)/C=C\C3OC3(C)CC(OC(=O)/C(C)=C/COC(C)=O)C12` (stereo not given), for which the TGI was found to be 13.7 µM in the test with SR leukemia; 12.8 µM in the test with EKVX NSCLC; 23.9 µM in the test with IGROV1 ovarian; 4.12 µM in the test on RXF 393 renal; 4.36 µM in the test on 786-0 renal; 5.64 µM with M14 melanoma. Moreover, the TGI in the test with HL-60(TB) leukemia was determined as 1.48 µM; in the test on T-47D breast it was 7.53 µM; in the test with BT-549 breast, 3.25 µM; in the test with MCF7 breast, 16.4 µM; with HCC-2998 colon, 28.8 µM; in the test on PC-3 prostate it was 21.6 µM. The TGI in the test on MDA-MB-435 was 4.32 µM; in the test with TK-10 renal, 14 µM; in the test on HS 578T breast, 11.8 µM; in the test on MDA-MB-231 breast, 9.13 µM; with SK-MEL-5 melanoma it was 15.9 µM; in the test with DU-145 prostate it was 30.2 µM.
